From US10981913B2, “11C -labeled 06 -benzylguanine, pet probe capable of visualizing 06-methyl guanine methyl-transferase activity, and production method of the same” (NATIONAL CENTER FOR GERIATRICS AND GERONTOLOGY, priority 2016, dated 2021)
Values joined by “and” are separate entries in the source; they are usually repeats but may differ in a detail not shown here. Equal values may be shown once. “Also recorded” adds a separate entry of the source. Read-outs that look alike come from different tables or passages of the source. Each block holds one compound with its values, some of them ahead of it.

Tests used:
[1] = molecular target: T1, MGMT (Homo sapiens, UniProt P16455); test: enzyme inhibitory activity against MGMT using fluorescent labeled oligonucleotide substrates; type: biochemical; details: FIG. 1
T1 sequence (P16455 1-207): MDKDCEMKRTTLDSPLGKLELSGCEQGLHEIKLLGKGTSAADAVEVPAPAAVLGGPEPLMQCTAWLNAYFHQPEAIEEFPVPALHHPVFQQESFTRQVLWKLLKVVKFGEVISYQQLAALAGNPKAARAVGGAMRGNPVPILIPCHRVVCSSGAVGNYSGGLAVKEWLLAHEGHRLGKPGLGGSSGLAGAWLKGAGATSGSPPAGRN
Text: The introduction position of the [^11C] methyl group of the benzene ring present in the above-mentioned O^6-benzylguanine (1) was investigated. […] Erickson, K. D. Miller, B. H. Mock, B. E. Glick-Wilsob, W. L. Winkel, K. L. Stone, K. A. Carlson, Synth. Commun. 2003, 33, 941-952.

[2] = stability in the plasma; type: in vitro ADME
[3] = Pharmacokinetics test using rats (brain permeability, blood and brain tissue by HPLC); type: in vivo, Sprague-Dawley rats; details: rat; for concentration at 30 min / Kp at 0.5 h / Kp at 30 min / concentration at 32 min / concentration at 44 min / Kp: Sprague-Dawley, iv; for concentration at 30 min / Kp at 0.5 h / Kp at 30 min / Brain/Plasma ratio / Conc. HPLC (concentration of compound in brain homogenate) / Conc. brain / concentration at 32 min / concentration at 44 min / Kp: 10 mg/kg; for Kp at 30 min / concentration of the compound in the brain based on the total dose: 30 minutes after administration; for Kp at 30 min: read-out: ratio of brain concentration to the concentration in the plasma; for Brain/Plasma ratio / Conc. HPLC (concentration of compound in brain homogenate) / Conc. brain: listed as mMeBG (2); for metabolism after intravenous administration (plasma concentration of compound and metabolites over time): i.v., FIGS. 7 to 9; for Kp: plasma 30 min
Protocol: Regarding O^6-(3-methylbenzyl) guanine (2) and O^6-(4-methylbenzyl) guanine (3) not labeled with ^11C synthesized by the above method (that is, cold), brain permeability was evaluated by the following method.
After intravenous administration (10 mg/kg) of O^6-(3-methylbenzyl) guanine (2) or O^6-(4-methylbenzyl) guanine (3) to Sprague-Dawley rats, blood and brain tissues were collected after a predetermined time, and analyzed by HPLC.

[4] = i.v. 10 mg/kg, 30 min, under anaesthesia, fasting, individual animals
[5] = i.v. 10 mg/kg, 30 min, under anaesthesia, nonfasting, individual animals
[6] = i.v. 10 mg/kg, 30 min, under nonanaesthesia, fasting, individual animals
[7] = brain homogenate, i.v. 10 mg/kg, under anaesthesia, fasting, read-out: Conc. HPLC (concentration of compound in brain homogenate)
[8] = brain, i.v. 10 mg/kg, under anaesthesia, fasting, read-out: Conc. brain

stability in the plasma [2]: stably exist in the plasma | concentration at 30 min ([3]; brain homogenate, i.v. 10 mg/kg, 30 min, under anaesthesia, fasting, average, read-out: Conc. HPLC (brain homogenate), Ave.): 0.513 µg/mL | concentration at 30 min ([3]; brain homogenate, i.v. 10 mg/kg, 30 min, under anaesthesia, fasting, individual animals, read-out: Conc. HPLC (concentration of compound in brain homogenate)): 0.568 µg/mL | concentration at 30 min ([3]; brain homogenate, i.v. 10 mg/kg, 30 min, under anaesthesia, nonfasting, average, read-out: Conc. HPLC (brain homogenate), Ave.): 0.663 µg/mL | concentration at 30 min ([3]; brain homogenate, i.v. 10 mg/kg, 30 min, under anaesthesia, nonfasting, individual animals, read-out: Conc. HPLC (concentration of compound in brain homogenate)): 0.784 µg/mL | concentration at 30 min ([3]; brain homogenate, i.v. 10 mg/kg, 30 min, under nonanaesthesia, fasting, average, read-out: Conc. HPLC (brain homogenate), Ave.): 0.523 µg/mL | concentration at 30 min ([3]; brain homogenate, i.v. 10 mg/kg, 30 min, under nonanaesthesia, fasting, individual animals, read-out: Conc. HPLC (concentration of compound in brain homogenate)): 0.536 µg/mL | Kp at 0.5 h ([3]; brain, i.v. 10 mg/kg, 30 min, under anaesthesia, fasting, average, read-out: Brain/Plasma ratio, Ave.): 0.303 | concentration at 30 min ([3]; brain, i.v. 10 mg/kg, 30 min, under anaesthesia, fasting, average, read-out: Conc. brain, Ave.): 1.35 µg/mL | Kp at 0.5 h ([3]; brain, i.v. 10 mg/kg, 30 min, under anaesthesia, fasting, individual animals, read-out: Brain/Plasma ratio): 0.336 | concentration at 30 min ([3]; brain, i.v. 10 mg/kg, 30 min, under anaesthesia, fasting, individual animals, read-out: Conc. brain): 1.5 µg/mL | Kp at 0.5 h ([3]; brain, i.v. 10 mg/kg, 30 min, under anaesthesia, nonfasting (plasma value from anaesthesia, fasting rats), average, read-out: Brain/Plasma ratio, Ave.): 0.373 | Kp at 0.5 h ([3]; brain, i.v. 10 mg/kg, 30 min, under anaesthesia, nonfasting (plasma value from anaesthesia, fasting rats), individual animals, read-out: Brain/Plasma ratio): 0.425 | concentration at 30 min ([3]; brain, i.v. 10 mg/kg, 30 min, under anaesthesia, nonfasting, average, read-out: Conc. brain, Ave.): 1.66 µg/mL | concentration at 30 min ([3]; brain, i.v. 10 mg/kg, 30 min, under anaesthesia, nonfasting, individual animals, read-out: Conc. brain): 1.89 µg/mL | Kp at 0.5 h ([3]; brain, i.v. 10 mg/kg, 30 min, under nonanaesthesia, fasting, average, read-out: Brain/Plasma ratio, Ave.): 0.265 | concentration at 30 min ([3]; brain, i.v. 10 mg/kg, 30 min, under nonanaesthesia, fasting, average, read-out: Conc. brain, Ave.): 1.38 µg/mL | Kp at 0.5 h ([3]; brain, i.v. 10 mg/kg, 30 min, under nonanaesthesia, fasting, individual animals, read-out: Brain/Plasma ratio): 0.27 | concentration at 30 min ([3]; brain, i.v. 10 mg/kg, 30 min, under nonanaesthesia, fasting, individual animals, read-out: Conc. brain): 1.4 µg/mL | Kp at 30 min ([3]; brain, i.v. 10 mg/kg): 0.3 | concentration at 30 min ([3]; plasma, average (n = 3), 30 min after i.v. 10 mg/kg of 2, rat under nonanaesthesia and fasting, other rats than brain sample, read-out: Conc. Plasma): 5.19 µg/mL | concentration at 30 min ([3]; plasma, average (n = 5), 30 min after i.v. 10 mg/kg of 2, rat under anaesthesia and fasting, other rats than brain sample, read-out: Conc. Plasma): 4.45 µg/mL | accumulation in the brain ([3]; i.v. 10 mg/kg): accumulated in the brain | Brain/Plasma ratio [3, 4]: 0.275 and 0.298 | Conc. HPLC (concentration of compound in brain homogenate) [3, 4]: 0.464 µg/mL and 0.507 µg/mL | Conc. brain [3, 4]: 1.223 µg/mL and 1.325 µg/mL | Brain/Plasma ratio ([3]; i.v. 10 mg/kg, 30 min, under anaesthesia, nonfasting (plasma value from anaesthesia, fasting rats), individual animals): 0.398 and 0.296 | Conc. HPLC (concentration of compound in brain homogenate) [3, 5]: 0.684 µg/mL and 0.522 µg/mL | Conc. brain [3, 5]: 1.772 µg/mL and 1.318 µg/mL | concentration of the compound in the brain based on the total dose ([3]; i.v. 10 mg/kg): 0.1%
SMILES: Cc1cccc(COc2nc(N)nc3nc[nH]c23)c1 [Compound 2, O^6-(3-methylbenzyl) guanine]
MGMT inhibitory effect compared with O^6-benzylguanine (1) [1]: MGMT inhibitory effect similar to O^6-benzylguanine (1); also recorded: slightly higher inhibitory activity than O^6-BG (1) | Brain/Plasma ratio [3, 6]: 0.315 and 0.255 and 0.249 and 0.229 and 0.277 | Conc. HPLC (concentration of compound in brain homogenate) [3, 6]: 0.635 µg/mL and 0.474 µg/mL and 0.481 µg/mL and 0.454 µg/mL and 0.555 µg/mL | Conc. brain [3, 6]: 1.634 µg/mL and 1.323 µg/mL and 1.291 µg/mL and 1.188 µg/mL and 1.436 µg/mL | metabolism after intravenous administration (plasma concentration of compound and metabolites over time) [3]: more stable than the compound (3) and was present for a long time

stability in the plasma [2]: stably exist in the plasma | concentration at 32 min [3, 7]: 0.231 µg/mL | concentration at 44 min [3, 7]: 0.118 µg/mL | Kp at 30 min ([3]; brain, i.v. 10 mg/kg): 0.3 | concentration at 32 min [3, 8]: 0.959 µg/mL | concentration at 44 min [3, 8]: 0.47 µg/mL | Kp ([3]; brain, i.v. 10 mg/kg, brain 32 min, under anaesthesia, fasting, read-out: Brain/Plasma ratio): 0.386 | Kp ([3]; brain, i.v. 10 mg/kg, brain 44 min, under anaesthesia, fasting, read-out: Brain/Plasma ratio): 0.189 | concentration at 30 min ([3]; plasma, average (n = 3), 30 min after i.v. 10 mg/kg of 3, rat under anaesthesia and fasting, other rats than brain sample, read-out: Conc. Plasma): 2.48 µg/mL | accumulation in the brain ([3]; i.v. 10 mg/kg): accumulated in the brain | concentration of the compound in the brain based on the total dose ([3]; i.v. 10 mg/kg): 0.1%
SMILES: Cc1ccc(COc2nc(N)nc3nc[nH]c23)cc1 [Compound 3, O^6-(4-methylbenzyl) guanine]
MGMT inhibitory effect compared with O^6-benzylguanine (1) [1]: MGMT inhibitory effect similar to O^6-benzylguanine (1); also recorded: slightly higher inhibitory activity than O^6-BG (1) | metabolism after intravenous administration (plasma concentration of compound and metabolites over time) [3]: quickly metabolized to unknown, more polar compounds within 240 minutes
